Assay results published in patent publication US20240109855A1, “ANTI-QUORUM SENSING, ANTI-BIOFILM, AND INFLAMMATION ATTENUATING COMPOUNDS, COMPOSITIONS, AND METHODS OF USING SAME” (priority 2021, published 2024).
Entries after “also recorded” stand apart in the source; their conditions may differ.

Key:
pyocyanin = experiment: Pyocyanin secretion by P. aeruginosa; assay type: cell-based; conditions: cell-free culture medium, spectrometry
Protocol: (§1) FIGS. 14A-14B include vertical bar graphs showing that PL-18 inhibition effects on secretion of virulence factors by P. aeruginosa. (14A) Pyocyanin was extracted in the chloroform-HCl method and measured in a plate-reader at 380 nm. (14B) Determination of rhamnolipids content was measured at 570 nm of the cell-free supernatant after adjustment to pH-2. All results were normalized and compere to the control group-DMSO 0.16%. Mean±SD, One-way ANOVA followed by Dunett's multiple comparisons test (p-values *≤0.0332, ***≤0.0002). N=9 (in three independent experiments).
(§2) To test whether PL-18 inhibits virulence effectors secreted by P. aeruginosa, the relative abundance of the virulence factors pyocyanin and rhamnolipids in the bacterial cell-free culture medium was determined by spectrometry.

rhamnolipids = experiment: Rhamnolipids secretion by P. aeruginosa; assay type: cell-based; conditions: cell-free culture medium, spectrometry
Protocol: as §1, §2

in vitro = conditions: human, LC50
Method in brief: (§3)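 30,000 cells/well exposed to coumaperine derivatives at varying concentrations or DMSO vehicle for 48 h at 37 °C, 5% CO2, then XTT added for 2 h. Absorbance at 450 nm minus 650 nm and blank, normalized to DMSO-treated cells (100% viability); triplicate, two independent tests, mean+SD.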

L428 cells = experiment: in vitro
Method in brief: as §3

elastase = experiment: Elastase secretion by P. aeruginosa; assay type: cell-based; conditions: data not shown
P. aeruginosa biofilm = P. aeruginosa biofilm formation under flow conditions (CLSM, IMARIS); assay type: cell-based
Protocol: FIGS. 15A-15B include fluorescent micrographs and a vertical bar graph showing that Pl-18 inhibits P. aeruginosa biofilm formation. The biofilm was grown under continuous flow conditions for 72 hr with 10 μM, 40 μM PL-18 or 0.04% DMSO. CLSM images visualize viable bacteria stained green and dead bacteria red using the BacLight® Dead/Live Kit. Scanned areas were 318 μm×318 μm. (15A) IMARIS images. Scale bar is 50 μm. (15B) A graph showing the mean±SD of the biofilm volume generated from three independent sets of flow-cell experiments. Two-way ANOVA Bonferroni's multiple comparisons test, 95% confidence interval (p-values ***≤0.0002).
The anti-biofilm activity of PL-18 was tested in flow conditions for 72 hours. The biofilm was visualized by CLSM and quantified using the IMARIS software.

rhlR-rhlI system = experiment: Bioluminescence QS reporter bacteria, rhlRI; assay type: cell-based, P. aeruginosa; conditions: Pseudomonas aeruginosa
Protocol: FIGS. 13A-13C include vertical bar graphs showing the dose response inhibition of QS by PL-18. Bioluminescence indicator bacteria containing the P. aeruginosa reporter genes rhlRI (13A) and lasRI (13B) were used. The reporter bacteria were incubated with and range of PL-18 concentrations or DMSO, together with (+AI) or without (−AI) the proper auto-inducer. Bioluminescence was recorded at 15 min intervals for 10 hrs at 37° C. The maximum signal in each group was normalized to the inducer's bioluminescence maximum signal with 0.5% DMSO. Mean±SD, One-way ANOVA followed by Dunett's multiple comparisons test was performed (p-value ***≤0.0002). N=9 (triplicate samples in three independent experiments). (13C) RT-qPCR of P. aeruginosa (PA01) QS genes. PA01 was co-incubated with two doses of PL-18 for seven hours, lysed and total RNA was extracted and converted to cDNA followed by target genes qPCR amplification. N≥16, Mean±SD. Two-way ANOVA, 95% confidence interval.
The inhibition of rhlR-rhlI system was slightly better than the inhibition of lasR-lasI. […] The relative transcription levels of QS genes lasR, lasI, rhlR and rhlI, was determined by RT-qPCR.

[1] = system: Chromobacterium violaceum (CV026); experiment: Quorum sensing inhibition test with bio-reporter CV026 (TLC overlay); assay type: cell-based; on Degree of quorum sensing inhibition (QSI), CV026: key: −: no inhibition; +: low inhibition; ++: medium inhibition; +++: strong inhibition
Method in brief: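 Compounds (40 mM in acetonitrile, 20 μl) were spotted on TLC and overlaid with soft agar reporter cultures, incubated overnight at 30 °C. CV026 was in LB with 500 nM 3-oxo-C6 (purple pigment), and KYC55 was in AT medium with 5 nM 3-oxo-C8 and 60 μg/ml X-gal (blue). Inhibition zone diameter was measured.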

## COc1cc(/C=C/C(=O)N2CCC=CC2=O)cc(O)c1O [PL-18, Dihydroxy piperlongumine]
pyocyanin
  Inhibition of pyocyanin secretion: inhibit both virulence factors in a dose dependent manner; also recorded: effectively attenuate
rhamnolipids
  Inhibition of rhamnolipids secretion: inhibit both virulence factors in a dose dependent manner; also recorded: effectively attenuate
In vitro
  CC50 at 48 h: 9.3 µM
L428 cells
  Cytotoxic: +
elastase
  Inhibition of elastase secretion: not shown to inhibit; also recorded: not found to inhibit
P. aeruginosa biofilm; Pseudomonas aeruginosa, 72 h, read-out: Inhibition of P. aeruginosa biofilm formation
  inhibition at 40 µM: 85%
P. aeruginosa biofilm; running text
  Attenuation of biofilm formation, in words: effectively attenuate
rhlR-rhlI system; read-out: IC50, rhlR-rhlI
  IC50: 18 µM
rhlR-rhlI system; read-out: Inhibition of rhlR-rhlI
  inhibition at 160 µM: 85.6%
[1]; Table 2, piperlongumine derivatives
  Degree of quorum sensing inhibition (QSI), CV026: ++
[1]; running text
  QSI activity against CV026, in words: moderate activity
